Results published in PubChem BioAssay AID1963846 (Molecular Pharmacology Branch, DTP, NCI, 2024).

System: 454973-116-R2-J3-PDC complex spheroid viability
Experiment: Anticancer human tumor 454973-116-R2-J3-PDC patient-derived pancreatic carcinoma cell line growth inhibition [POLQ]
Conditions: for IC50: curve of first compound; for viability, T/C: stronger effect = lower value
How it was run: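 Growth inhibition in 3D: complex spheroids (tumor PDC, HUVEC, MSC) treated with POLQ inhibitor combinations; where Cmax unknown, highest tested concentration 10 microM, except SN-38 at 1 microM.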

[1] = second compound 0.0316 µM, first compound 0.0316 µM
[2] = second compound 0.0316 µM, first compound 0.1 µM
[3] = second compound 0.0316 µM, first compound 0.316 µM
[4] = second compound 0.0316 µM, first compound 1 µM
[5] = second compound 0.1 µM, first compound 0.0316 µM
[6] = second compound 0.1 µM, first compound 0.1 µM
[7] = second compound 0.1 µM, first compound 0.316 µM
[8] = second compound 0.1 µM, first compound 1 µM
[9] = second compound 0.316 µM, first compound 0.0316 µM
[10] = second compound 0.316 µM, first compound 0.1 µM
[11] = second compound 0.316 µM, first compound 0.316 µM
[12] = second compound 0.316 µM, first compound 1 µM
[13] = second compound 1 µM, first compound 0.0316 µM
[14] = second compound 1 µM, first compound 0.1 µM
[15] = second compound 1 µM, first compound 0.316 µM
[16] = second compound 1 µM, first compound 1 µM
[17] = second compound 3.16 µM, first compound 0.0316 µM
[18] = second compound 3.16 µM, first compound 0.1 µM
[19] = second compound 3.16 µM, first compound 0.316 µM
[20] = second compound 3.16 µM, first compound 1 µM
[21] = second compound 10 µM, first compound 0.0316 µM
[22] = second compound 10 µM, first compound 0.1 µM
[23] = second compound 10 µM, first compound 0.316 µM
[24] = second compound 10 µM, first compound 1 µM
[25] = second compound 0.0316 µM, first compound 0.00316 µM
[26] = second compound 0.0316 µM, first compound 0.01 µM
[27] = second compound 0.1 µM, first compound 0.00316 µM
[28] = second compound 0.1 µM, first compound 0.01 µM
[29] = second compound 0.316 µM, first compound 0.00316 µM
[30] = second compound 0.316 µM, first compound 0.01 µM
[31] = second compound 1 µM, first compound 0.00316 µM
[32] = second compound 1 µM, first compound 0.01 µM
[33] = second compound 3.16 µM, first compound 0.00316 µM
[34] = second compound 3.16 µM, first compound 0.01 µM
[35] = second compound 10 µM, first compound 0.00316 µM
[36] = second compound 10 µM, first compound 0.01 µM
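Further: spheroids exposed to drugs for seven days before measurement.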
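Wherever viability, T/C is given: percent viability relative to DMSO vehicle control wells taken as 100%.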

CNCc1ccc(-c2[nH]c3cc(F)cc4c3c2CCNC4=O)cc1 + Nc1ccc(C#CCN(C(=O)Cc2ncc(C(F)(F)F)cc2C(F)(F)F)c2ccc(F)cc2)nn1
IC50 (second compound 0.0316 µM): > 10000 nM
IC50 (second compound 0.1 µM): > 10000 nM
IC50 (second compound 0.316 µM): > 10000 nM
IC50 (second compound 1 µM): > 10000 nM
IC50 (second compound 3.16 µM): > 10000 nM
IC50 (second compound 10 µM): > 10000 nM
viability, T/C [1]: 114%
viability, T/C [2]: 101%
viability, T/C [3]: 109%
viability, T/C [4]: 94.5%
viability, T/C (second compound 0.0316 µM, first compound 3.16 µM): 104%
viability, T/C (second compound 0.0316 µM, first compound 10 µM): 91.9%
viability, T/C [5]: 103%
viability, T/C [6]: 96.2%
viability, T/C [7]: 95.8%
viability, T/C [8]: 90.3%
viability, T/C (second compound 0.1 µM, first compound 3.16 µM): 98.2%
viability, T/C (second compound 0.1 µM, first compound 10 µM): 95.4%
viability, T/C [9]: 105%
viability, T/C [10]: 100%
viability, T/C [11]: 105%
viability, T/C [12]: 95.6%
viability, T/C (second compound 0.316 µM, first compound 3.16 µM): 101%
viability, T/C (second compound 0.316 µM, first compound 10 µM): 95.9%
viability, T/C [13]: 110%
viability, T/C [14]: 106%
viability, T/C [15]: 106%
viability, T/C [16]: 108%
viability, T/C (second compound 1 µM, first compound 3.16 µM): 110%
viability, T/C (second compound 1 µM, first compound 10 µM): 91%
viability, T/C [17]: 113%
viability, T/C [18]: 115%
viability, T/C [19]: 108%
viability, T/C [20]: 98.7%
viability, T/C (second compound 3.16 µM, first compound 3.16 µM): 121%
viability, T/C (second compound 3.16 µM, first compound 10 µM): 90.6%
viability, T/C [21]: 116%
viability, T/C [22]: 102%
viability, T/C [23]: 112%
viability, T/C [24]: 117%
viability, T/C (second compound 10 µM, first compound 3.16 µM): 119%
viability, T/C (second compound 10 µM, first compound 10 µM): 85%

COc1cccc(OCCCN)c1-c1cc(Nc2cnc(C#N)cn2)n[nH]1 + Nc1ccc(C#CCN(C(=O)Cc2ncc(C(F)(F)F)cc2C(F)(F)F)c2ccc(F)cc2)nn1
IC50 (second compound 0.0316 µM): 15.6 nM
IC50 (second compound 0.1 µM): 13.6 nM
IC50 (second compound 0.316 µM): 14.3 nM
IC50 (second compound 1 µM): 13.9 nM
IC50 (second compound 3.16 µM): 13.7 nM
IC50 (second compound 10 µM): 11.6 nM
viability, T/C [25]: 100%
viability, T/C [26]: 76.6%
viability, T/C [1]: 7.44%
viability, T/C [2]: 5.67%
viability, T/C [3]: 5.56%
viability, T/C [4]: 4.28%
viability, T/C [27]: 101%
viability, T/C [28]: 63.5%
viability, T/C [5]: 12.7%
viability, T/C [6]: 6.65%
viability, T/C [7]: 5.32%
viability, T/C [8]: 4.22%
viability, T/C [29]: 110%
viability, T/C [30]: 67.2%
viability, T/C [9]: 11.2%
viability, T/C [10]: 7.21%
viability, T/C [11]: 5.08%
viability, T/C [12]: 4.5%
viability, T/C [31]: 99.7%
viability, T/C [32]: 67.3%
viability, T/C [13]: 6.4%
viability, T/C [14]: 5.68%
viability, T/C [15]: 5.11%
viability, T/C [16]: 3.75%
viability, T/C [33]: 101%
viability, T/C [34]: 66.7%
viability, T/C [17]: 5.97%
viability, T/C [18]: 5.07%
viability, T/C [19]: 5.91%
viability, T/C [20]: 4.97%
viability, T/C [35]: 113%
viability, T/C [36]: 56.4%
viability, T/C [21]: 5.54%
viability, T/C [22]: 5.59%
viability, T/C [23]: 5.26%
viability, T/C [24]: 4.7%

Cn1ncnc1[C@H]1c2n[nH]c(=O)c3cc(F)cc(c23)N[C@@H]1c1ccc(F)cc1 + Nc1ccc(C#CCN(C(=O)Cc2ncc(C(F)(F)F)cc2C(F)(F)F)c2ccc(F)cc2)nn1
IC50 (second compound 0.0316 µM): > 100 nM
IC50 (second compound 0.1 µM): > 100 nM
IC50 (second compound 0.316 µM): > 100 nM
IC50 (second compound 1 µM): > 100 nM
IC50 (second compound 3.16 µM): > 100 nM
IC50 (second compound 10 µM): > 100 nM
viability, T/C (second compound 0.0316 µM, first compound 0.000316 µM): 107%
viability, T/C (second compound 0.0316 µM, first compound 0.001 µM): 93.9%
viability, T/C [25]: 98%
viability, T/C [26]: 90.9%
viability, T/C [1]: 93.6%
viability, T/C [2]: 82.3%
viability, T/C (second compound 0.1 µM, first compound 0.000316 µM): 108%
viability, T/C (second compound 0.1 µM, first compound 0.001 µM): 104%
viability, T/C [27]: 96.7%
viability, T/C [28]: 98.9%
viability, T/C [5]: 97.2%
viability, T/C [6]: 79.9%
viability, T/C (second compound 0.316 µM, first compound 0.000316 µM): 105%
viability, T/C (second compound 0.316 µM, first compound 0.001 µM): 102%
viability, T/C [29]: 102%
viability, T/C [30]: 92.3%
viability, T/C [9]: 101%
viability, T/C [10]: 89.2%
viability, T/C (second compound 1 µM, first compound 0.000316 µM): 109%
viability, T/C (second compound 1 µM, first compound 0.001 µM): 105%
viability, T/C [31]: 108%
viability, T/C [32]: 105%
viability, T/C [13]: 91.6%
viability, T/C [14]: 82.9%
viability, T/C (second compound 3.16 µM, first compound 0.000316 µM): 111%
viability, T/C (second compound 3.16 µM, first compound 0.001 µM): 116%
viability, T/C [33]: 102%
viability, T/C [34]: 100%
viability, T/C [17]: 96.3%
viability, T/C [18]: 84.7%
viability, T/C (second compound 10 µM, first compound 0.000316 µM): 112%
viability, T/C (second compound 10 µM, first compound 0.001 µM): 109%
viability, T/C [35]: 117%
viability, T/C [36]: 107%
viability, T/C [21]: 113%
viability, T/C [22]: 95.8%
